Test results from patent publication US12091561B2, “Recording method and recording apparatus” (Seiko Epson Corporation, priority 2021, dated 2024).

Experimental: The solubility is measured as described below. A predetermined amount of a compound is mixed with 100 g of water in an environment at 25° C. and is then stirred for 30 minutes. […] As described above, when a predetermined amount of the compound is mixed with 100 g of water, the maximum predetermined amount which is judged to be dissolved is used as the solubility.

Row | SMILES | SOLUBILITY [g/100 g OF WATER]
1 | OC1CCCCC1O (stereo not drawn) [1,2-CYCLOHEXANEDIOL, 1,2-cyclohexanediol] | >100 g/100 g OF WATER
2 | CC(C)(O)CCC(C)(C)O [2,5-dimethyl-2,5-hexanediol] | 14 g/100 g OF WATER
3 | CC(C)(CO)CO [NEOPENTYL GLYCOL, neopentyl glycol] | 80 g/100 g OF WATER
4 | CC(C)(O)C(C)(C)O [PINACOL, pinacol] | ∞
5 | CC(O)CO (stereo not drawn) [PROPYLENE GLYCOL, propylene glycol] | ∞
6 | O=C1CCCCCN1 [ε-CAPROLACTAM, ε-caprolactam] | >100 g/100 g OF WATER
